Legend:
[1] = test system: 786-0; test: Growth inhibition of human 786-0 cells incubated for 48 hrs by sulforhodamine B assay; assay type: functional, cell-based; conditions: 786-0, 48 h
[2] = test system: UACC-62; test: Growth inhibition of human UACC62 cells incubated for 48 hrs by sulforhodamine B assay; assay type: functional, cell-based; conditions: UACC-62, 48 h
[3] = test system: NCI-H23; test: Growth inhibition of human NCI-H23 cells assessed as cell growth at 1 uM incubated for 48 hrs by sulforhodamine B assay relative to control; assay type: functional; conditions: NCI-H23, 48 h, read-out: Activity
[4] = test system: UACC-62; test: Growth inhibition of human UACC62 cells assessed as cell growth at 100 uM incubated for 48 hrs by sulforhodamine B assay relative to control; assay type: functional; conditions: UACC-62, 48 h, read-out: Activity
[5] = test system: NCI/ADR-RES; test: Growth inhibition of human NCI/ADR-RES cells assessed as cell growth at 0.01 uM incubated for 48 hrs by sulforhodamine B assay relative to control; assay type: functional; conditions: read-out: Activity
[6] = test system: NCI-H226; test: Growth inhibition of human NCI-H226 cells assessed as cell growth at 0.01 uM incubated for 48 hrs by sulforhodamine B assay relative to control; assay type: functional; conditions: NCI-H226, 48 h, read-out: Activity
[7] = test system: SF-539; test: Growth inhibition of human SF539 cells assessed as cell growth at 100 uM incubated for 48 hrs by sulforhodamine B assay relative to control; assay type: functional; conditions: SF-539, 48 h, read-out: Activity
[8] = test system: T47D; test: Growth inhibition of human T47D cells assessed as cell growth at 0.01 uM incubated for 48 hrs by sulforhodamine B assay relative to control; assay type: functional; conditions: read-out: Activity
[9] = test system: RXF 393; test: Growth inhibition of human RXF393 cells incubated for 48 hrs by sulforhodamine B assay; assay type: functional, cell-based; conditions: RXF 393, 48 h
[10] = test system: MDA-MB-468; test: Growth inhibition of human MDA-MB-468 cells incubated for 48 hrs by sulforhodamine B assay; assay type: functional, cell-based; conditions: MDA-MB-468, 48 h
[11] = test system: HCT-15; test: Growth inhibition of human HCT15 cells assessed as cell growth at 0.1 uM incubated for 48 hrs by sulforhodamine B assay relative to control; assay type: functional; conditions: HCT-15, 48 h, read-out: Activity
[12] = test system: OVCAR-5; test: Growth inhibition of human OVCAR5 cells assessed as cell growth at 100 uM incubated for 48 hrs by sulforhodamine B assay relative to control; assay type: functional; conditions: OVCAR-5, 48 h, read-out: Activity
[13] = test system: SK-MEL-5; test: Growth inhibition of human SK-MEL-5 cells assessed as cell growth at 100 uM incubated for 48 hrs by sulforhodamine B assay relative to control; assay type: functional; conditions: SK-MEL-5, 48 h, read-out: Activity
[14] = test system: OVCAR-3; test: Growth inhibition of human OVCAR3 cells assessed as cell growth at 0.01 uM incubated for 48 hrs by sulforhodamine B assay relative to control; assay type: functional; conditions: OVCAR-3, 48 h, read-out: Activity
[15] = test system: OVCAR-3; test: Growth inhibition of human OVCAR3 cells incubated for 48 hrs by sulforhodamine B assay; assay type: functional, cell-based; conditions: OVCAR-3, 48 h
[16] = test system: SK-MEL-2; test: Growth inhibition of human SK-MEL-2 cells assessed as cell growth at 1 uM incubated for 48 hrs by sulforhodamine B assay relative to control; assay type: functional; conditions: SK-MEL-2, 48 h, read-out: Activity
[17] = test system: Malme-3M; test: Growth inhibition of human MALME-3M cells assessed as cell growth at 100 uM incubated for 48 hrs by sulforhodamine B assay relative to control; assay type: functional; conditions: read-out: Activity
[18] = test system: NCI/ADR-RES; test: Growth inhibition of human NCI/ADR-RES cells assessed as cell growth at 1 uM incubated for 48 hrs by sulforhodamine B assay relative to control; assay type: functional; conditions: read-out: Activity
[19] = test system: NCI-H23; test: Growth inhibition of human NCI-H23 cells assessed as cell growth at 100 uM incubated for 48 hrs by sulforhodamine B assay relative to control; assay type: functional; conditions: NCI-H23, 48 h, read-out: Activity
[20] = test system: SK-MEL-28; test: Growth inhibition of human SK-MEL-28 cells assessed as cell growth at 100 uM incubated for 48 hrs by sulforhodamine B assay relative to control; assay type: functional; conditions: SK-MEL-28, 48 h, read-out: Activity
[21] = test system: SK-MEL-5; test: Growth inhibition of human SK-MEL-5 cells assessed as cell growth at 0.1 uM incubated for 48 hrs by sulforhodamine B assay relative to control; assay type: functional; conditions: SK-MEL-5, 48 h, read-out: Activity
[22] = test system: SR; test: Growth inhibition of human SR cells assessed as cell growth at 1 uM incubated for 48 hrs by sulforhodamine B assay relative to control; assay type: functional; conditions: read-out: Activity
[23] = test system: SK-MEL-28; test: Growth inhibition of human SK-MEL-28 cells assessed as cell growth at 0.1 uM incubated for 48 hrs by sulforhodamine B assay relative to control; assay type: functional; conditions: SK-MEL-28, 48 h, read-out: Activity
[24] = test system: HCT-116; test: Growth inhibition of human HCT116 cells assessed as cell growth at 0.1 uM incubated for 48 hrs by sulforhodamine B assay relative to control; assay type: functional; conditions: HCT-116, 48 h, read-out: Activity
[25] = test system: NCI-H522; test: Growth inhibition of human NCI-H522 cells assessed as cell growth at 10 uM incubated for 48 hrs by sulforhodamine B assay relative to control; assay type: functional; conditions: NCI-H522, 48 h, read-out: Activity
[26] = test system: Malme-3M; test: Growth inhibition of human MALME-3M cells assessed as cell growth at 1 uM incubated for 48 hrs by sulforhodamine B assay relative to control; assay type: functional; conditions: read-out: Activity
[27] = test system: M14; test: Growth inhibition of human M14 cells assessed as cell growth at 0.1 uM incubated for 48 hrs by sulforhodamine B assay relative to control; assay type: functional; conditions: M14, 48 h, read-out: Activity
[28] = test system: SR; test: Growth inhibition of human SR cells incubated for 48 hrs by sulforhodamine B assay; assay type: functional, cell-based
[29] = test system: HCT-116; test: Growth inhibition of human HCT116 cells incubated for 48 hrs by sulforhodamine B assay; assay type: functional, cell-based; conditions: HCT-116, 48 h
[30] = read-out: LC50 (the source's name)
[31] = read-out: pLC50 (the source's name) (converted)

Which results are given for `COc1cc(Cl)cc(-c2nn(-c3cccc(NC(=O)Nc4cccc(C(F)(F)F)c4)c3)cc2-c2ccncc2)c1`?
GI50 ([1]; read-out: GI50): 1.94 µM; CC50 [1, 30]: 67.1 µM; TGI ([1]; read-out: TGI): 57.5 µM; GI50 ([1]; read-out: pGI50 (converted)): 1.95 µM; CC50 [1, 31]: 67.6 µM; TGI ([1]; read-out: pTGI (converted)): 6.76 µM; IC50 [2]: 1.47 µM; GI50 ([2]; read-out: GI50): 1.47 µM; CC50 [2, 30]: 10.2 µM; TGI ([2]; read-out: TGI): 33.4 µM; GI50 ([2]; read-out: pGI50 (converted)): 1.48 µM; CC50 [2, 31]: 10.2 µM; TGI ([2]; read-out: pTGI (converted)): 3.8 µM; growth at 1 µM [3]: 71%; growth at 100 µM [4]: -82%; growth at 0.01 µM [5]: 100%; growth at 0.01 µM [6]: 95%; growth at 100 µM [7]: -72%; growth at 0.01 µM [8]: 97%; LC50 [9]: 36.3 µM; GI50 ([9]; read-out: GI50): 1.4 µM; TGI ([9]; read-out: TGI): 43.5 µM; GI50 ([9]; read-out: pGI50 (converted)): 1.41 µM; TGI ([9]; read-out: pTGI (converted)): 4.37 µM; IC50 [10]: 1.05 µM; GI50 ([10]; read-out: GI50): 1.05 µM; CC50 [10, 30]: > 100 µM; TGI ([10]; read-out: TGI): 49.9 µM; GI50 ([10]; read-out: pGI50 (converted)): 1.05 µM; CC50 [10, 31]: > 100 µM; TGI ([10]; read-out: pTGI (converted)): 5.01 µM; growth at 0.1 µM [11]: 83%; growth at 100 µM [12]: -13%; growth at 100 µM [13]: -99%; growth at 0.01 µM [14]: 100%; IC50 [15]: 0.59 µM; GI50 ([15]; read-out: GI50): 0.502 µM; CC50 [15, 30]: > 100 µM; TGI ([15]; read-out: TGI): 45.7 µM; GI50 ([15]; read-out: pGI50 (converted)): 0.589 µM; CC50 [15, 31]: > 100 µM; TGI ([15]; read-out: pTGI (converted)): 4.57 µM; growth at 1 µM [16]: 85%; growth at 100 µM [17]: -26%; growth at 1 µM [18]: 65%; growth at 100 µM [19]: -40%; growth at 100 µM [20]: -25%; growth at 0.1 µM [21]: 98%; growth at 1 µM [22]: 55%; growth at 0.1 µM [23]: 100%; growth at 0.1 µM [24]: 99%; growth at 10 µM [25]: -18.6%; growth at 1 µM [26]: 75%; growth at 0.1 µM [27]: 93%; GI50 ([28]; read-out: GI50): 1.14 µM; CC50 [28, 30]: > 100 µM; TGI ([28]; read-out: TGI): 43.9 µM; GI50 ([28]; read-out: pGI50 (converted)): 1.15 µM; CC50 [28, 31]: > 100 µM; TGI ([28]; read-out: pTGI (converted)): 4.37 µM; IC50 [29]: 0.75 µM; GI50 ([29]; read-out: GI50): 0.754 µM; CC50 [29, 30]: 35.7 µM; TGI ([29]; read-out: TGI): 75.1 µM; GI50 ([29]; read-out: pGI50 (converted)): 0.759 µM; CC50 [29, 31]: 38.9 µM; TGI ([29]; read-out: pTGI (converted)): 7.59 µM
